Key:
Test in all cases: Bacterial reverse mutation assay
Format in all cases: cell-based
[1] = system: Salmonella typhimurium strain TA100
[2] = system: Salmonella typhimurium strain TA1535
[3] = system: Escherichia coli strain (WP2 uvrA); conditions: E. coli
[4] = system: Salmonella typhimurium strain TA98
[5] = system: Salmonella typhimurium strain TA1537; conditions: TA1537, with S9 activation, 78.1 μg/plate

Oc1ccc(-c2ccc3cc(O)ccc3c2)c(O)c1 [HS-1793, 4-(6-hydroxy-2-naphthyl)-1,3-benzenediol]
Number of reverse mutants/plate (Mean ± SD) ([1]; TA100, with S9 activation, 78.1 μg/plate): 116 ± 13 reverse mutants/plate | Number of reverse mutants/plate (Mean ± SD) ([1]; TA100, with S9 activation, 156.3 μg/plate): 109 ± 8 reverse mutants/plate | Number of reverse mutants/plate (Mean ± SD) ([1]; TA100, with S9 activation, 312.5 μg/plate): 114 ± 4 reverse mutants/plate | Number of reverse mutants/plate (Mean ± SD) ([1]; TA100, with S9 activation, 625 μg/plate): 106 ± 19 reverse mutants/plate | Number of reverse mutants/plate (Mean ± SD) ([1]; TA100, with S9 activation, 1,250 μg/plate): 108 ± 14 reverse mutants/plate | Number of reverse mutants/plate (Mean ± SD) ([1]; TA100, with S9 activation, 2,500 μg/plate): 118 ± 11 reverse mutants/plate | Number of reverse mutants/plate (Mean ± SD) ([1]; TA100, with S9 activation, 5,000 μg/plate): 106 ± 9 reverse mutants/plate | Number of reverse mutants/plate (Mean ± SD) ([1]; TA100, without S9 activation, 78.1 μg/plate): 121 ± 8 reverse mutants/plate | Number of reverse mutants/plate (Mean ± SD) ([1]; TA100, without S9 activation, 156.3 μg/plate): 117 ± 11 reverse mutants/plate | Number of reverse mutants/plate (Mean ± SD) ([1]; TA100, without S9 activation, 312.5 μg/plate): 116 ± 9 reverse mutants/plate | Number of reverse mutants/plate (Mean ± SD) ([1]; TA100, without S9 activation, 625 μg/plate): 124 ± 6 reverse mutants/plate | Number of reverse mutants/plate (Mean ± SD) ([1]; TA100, without S9 activation, 1,250 μg/plate): 107 ± 12 reverse mutants/plate | Number of reverse mutants/plate (Mean ± SD) ([1]; TA100, without S9 activation, 2,500 μg/plate): 108 ± 6 reverse mutants/plate | Number of reverse mutants/plate (Mean ± SD) ([1]; TA100, without S9 activation, 5,000 μg/plate): 119 ± 12 reverse mutants/plate | Number of reverse mutants/plate (Mean ± SD) ([2]; TA1535, with S9 activation, 78.1 μg/plate): 24 ± 3 reverse mutants/plate | Number of reverse mutants/plate (Mean ± SD) ([2]; TA1535, with S9 activation, 156.3 μg/plate): 22 ± 3 reverse mutants/plate | Number of reverse mutants/plate (Mean ± SD) ([2]; TA1535, with S9 activation, 312.5 μg/plate): 23 ± 4 reverse mutants/plate | Number of reverse mutants/plate (Mean ± SD) ([2]; TA1535, with S9 activation, 625 μg/plate): 21 ± 4 reverse mutants/plate | Number of reverse mutants/plate (Mean ± SD) ([2]; TA1535, with S9 activation, 1,250 μg/plate): 21 ± 3 reverse mutants/plate | Number of reverse mutants/plate (Mean ± SD) ([2]; TA1535, with S9 activation, 2,500 μg/plate): 20 ± 2 reverse mutants/plate | Number of reverse mutants/plate (Mean ± SD) ([2]; TA1535, with S9 activation, 5,000 μg/plate): 21 ± 6 reverse mutants/plate | Number of reverse mutants/plate (Mean ± SD) ([2]; TA1535, without S9 activation, 78.1 μg/plate): 15 ± 2 reverse mutants/plate | Number of reverse mutants/plate (Mean ± SD) ([2]; TA1535, without S9 activation, 156.3 μg/plate): 17 ± 2 reverse mutants/plate | Number of reverse mutants/plate (Mean ± SD) ([2]; TA1535, without S9 activation, 312.5 μg/plate): 18 ± 2 reverse mutants/plate | Number of reverse mutants/plate (Mean ± SD) ([2]; TA1535, without S9 activation, 625 μg/plate): 17 ± 5 reverse mutants/plate | Number of reverse mutants/plate (Mean ± SD) ([2]; TA1535, without S9 activation, 1,250 μg/plate): 17 ± 2 reverse mutants/plate | Number of reverse mutants/plate (Mean ± SD) ([2]; TA1535, without S9 activation, 2,500 μg/plate): 18 ± 4 reverse mutants/plate | Number of reverse mutants/plate (Mean ± SD) ([2]; TA1535, without S9 activation, 5,000 μg/plate): 17 ± 3 reverse mutants/plate | Number of reverse mutants/plate (Mean ± SD) ([3]; with S9 activation, 78.1 μg/plate): 39 ± 3 reverse mutants/plate | Number of reverse mutants/plate (Mean ± SD) ([3]; with S9 activation, 156.3 μg/plate): 40 ± 2 reverse mutants/plate | Number of reverse mutants/plate (Mean ± SD) ([3]; with S9 activation, 312.5 μg/plate): 42 ± 3 reverse mutants/plate | Number of reverse mutants/plate (Mean ± SD) ([3]; with S9 activation, 625 μg/plate): 38 ± 3 reverse mutants/plate | Number of reverse mutants/plate (Mean ± SD) ([3]; with S9 activation, 1,250 μg/plate): 37 ± 2 reverse mutants/plate | Number of reverse mutants/plate (Mean ± SD) ([3]; with S9 activation, 2,500 μg/plate): 43 ± 3 reverse mutants/plate | Number of reverse mutants/plate (Mean ± SD) ([3]; with S9 activation, 5,000 μg/plate): 40 ± 2 reverse mutants/plate | Number of reverse mutants/plate (Mean ± SD) ([3]; without S9 activation, 78.1 μg/plate): 39 ± 3 reverse mutants/plate | Number of reverse mutants/plate (Mean ± SD) ([3]; without S9 activation, 156.3 μg/plate): 33 ± 3 reverse mutants/plate | Number of reverse mutants/plate (Mean ± SD) ([3]; without S9 activation, 312.5 μg/plate): 37 ± 2 reverse mutants/plate | Number of reverse mutants/plate (Mean ± SD) ([3]; without S9 activation, 625 μg/plate): 36 ± 2 reverse mutants/plate | Number of reverse mutants/plate (Mean ± SD) ([3]; without S9 activation, 1,250 μg/plate): 36 ± 3 reverse mutants/plate | Number of reverse mutants/plate (Mean ± SD) ([3]; without S9 activation, 2,500 μg/plate): 32 ± 1 reverse mutants/plate | Number of reverse mutants/plate (Mean ± SD) ([3]; without S9 activation, 5,000 μg/plate): 36 ± 2 reverse mutants/plate | Number of reverse mutants/plate (Mean ± SD) ([4]; TA98, with S9 activation, 78.1 μg/plate): 40 ± 4 reverse mutants/plate | Number of reverse mutants/plate (Mean ± SD) ([4]; TA98, with S9 activation, 312.5 μg/plate): 43 ± 8 reverse mutants/plate | Number of reverse mutants/plate (Mean ± SD) ([4]; TA98, with S9 activation, 625 μg/plate): 42 ± 4 reverse mutants/plate | Number of reverse mutants/plate (Mean ± SD) ([4]; TA98, with S9 activation, 1,250 μg/plate): 43 ± 4 reverse mutants/plate | Number of reverse mutants/plate (Mean ± SD) ([4]; TA98, with S9 activation, 2,500 μg/plate): 44 ± 4 reverse mutants/plate | Number of reverse mutants/plate (Mean ± SD) ([4]; TA98, with S9 activation, 5,000 μg/plate): 33 ± 2 reverse mutants/plate | Number of reverse mutants/plate (Mean ± SD) ([4]; TA98, without S9 activation, 78.1 μg/plate): 29 ± 2 reverse mutants/plate | Number of reverse mutants/plate (Mean ± SD) ([4]; TA98, without S9 activation, 156.3 μg/plate): 27 ± 2 reverse mutants/plate | Number of reverse mutants/plate (Mean ± SD) ([4]; TA98, without S9 activation, 312.5 μg/plate): 30 ± 4 reverse mutants/plate | Number of reverse mutants/plate (Mean ± SD) ([4]; TA98, without S9 activation, 625 μg/plate): 26 ± 3 reverse mutants/plate | Number of reverse mutants/plate (Mean ± SD) ([4]; TA98, without S9 activation, 1,250 μg/plate): 25 ± 2 reverse mutants/plate | Number of reverse mutants/plate (Mean ± SD) ([4]; TA98, without S9 activation, 2,500 μg/plate): 28 ± 1 reverse mutants/plate | Number of reverse mutants/plate (Mean ± SD) ([4]; TA98, without S9 activation, 5,000 μg/plate): 27 ± 3 reverse mutants/plate | Number of reverse mutants/plate (Mean ± SD) [5]: 16 ± 2 reverse mutants/plate

Source: paper PMC4206749 (Toxicological Research, 2014)
